Patent US9752049B2, “Optically transparent, superhydrophobic, biocompatible thin film coatings and methods for producing same” (UT-BATTELLE, LLC, priority 2014, dated 2017)
≈ marks a conversion by molar mass, not a printed value.

Experiment: physchem
Settings: organic solvent or mixture, Solubility Limit
Description: The first step was to gather solubility data on the fatty acids in readily available solvents. […] The available solvents included ethanol, isopropanol, hexane, and acetone.
The next step was to use spin-coating to apply the optimum mixture of each fatty acid/alcohol solution to microscope slides. This process began with cleaning the slide, then affixing it to the spin-coater by turning on the internal vacuum. Once the slide was in place, the chosen solution was applied by a syringe using a 0.02 micron filter. This filter was to ensure that only the pure solution and no contaminants or occasional precipitates made it onto the slide. The coated slide was then spun at 1000 rpm for thirty seconds and placed on a hot plate at 152 degrees Fahrenheit to vaporize any remaining solvent. The slide was allowed to cool for two minutes. Once cool, the slide was subjected to a simple yet effective test of hydrophobicity. This test consisted of merely placing a water droplet on the slide using a Pasteur pipet and eyeballing it to see if it even merited further characterization. This process was repeated for many slides, each time varying the type of fatty acid and the solvent as well as the concentration of the fatty acid in the solvent. […] Below is additional solubility data for Behenic Acid: […]

solubility: 300 mM (≈ 68.5 mg/mL)
Compound: CCCCCCCCCCCCCC(=O)O [Myristic Acid]
